Columns and labels:
[1] = target: T1, Serine/threonine-protein kinase PLK1 (Homo sapiens, UniProt P53350); assay: Inhibition of PLK1 in thymidine synchronized human HeLa cells using casein as substrate preincubated with compound for 13 hrs followed by substrate addition and measured after 12 to 36 hrs in the presence of [gamma33P]ATP by autoradiography based Western blot analysis; format: cell-based
MCF7 = assay: Antiproliferative activity against human MCF7 cells assessed as reduction in cell proliferation incubated for 72 hrs; format: functional, cell-based; details: MCF7, 72 h
A-431 = assay: Antiproliferative activity against human A-431 cells assessed as reduction in cell proliferation incubated for 72 hrs; format: functional, cell-based; details: A-431, 72 h
SK-OV-3 = assay: Antiproliferative activity against human SK-OV-3 cells assessed as reduction in cell viability incubated for 72 hrs; format: functional, cell-based; details: SK-OV-3, 72 h
HCT-15 = assay: Antiproliferative activity against human HCT-15 cells assessed as reduction in cell viability incubated for 72 hrs; format: functional, cell-based; details: HCT-15, 72 h
U2OS = assay: Antiproliferative activity against human U2OS cells assessed as reduction in cell viability incubated for 72 hrs; format: functional, cell-based
A549 = assay: Antiproliferative activity against human A549 cells assessed as reduction in cell viability incubated for 72 hrs; format: functional, cell-based; details: A549, 72 h
HT-29 = assay: Antiproliferative activity against human HT-29 cells assessed as reduction in cell viability incubated for 72 hrs; format: functional, cell-based; details: HT-29, 72 h
PC-3 = assay: Antiproliferative activity against human PC-3 cells assessed as reduction in cell viability incubated for 72 hrs; format: functional, cell-based; details: PC-3, 72 h
LN-229 = assay: Antiproliferative activity against human LN-229 cells assessed as reduction in cell viability incubated for 72 hrs; format: functional, cell-based; details: LN-229, 72 h
SKW 6.4 = assay: Antiproliferative activity against human SKW 6.4 cells assessed as reduction in cell viability incubated for 72 hrs; format: functional, cell-based; details: SKW 6.4, 72 h
Detroit 562 = assay: Antiproliferative activity against human Detroit 562 cells assessed as reduction in cell viability incubated for 72 hrs; format: functional, cell-based; details: Detroit 562, 72 h
[2] = target: T2, Serine/threonine-protein kinase PLK2 (Homo sapiens, UniProt Q9NYY3); assay: Inhibition of 5-carboxyfluorescein-GPMQTSpTPKNG-OH peptide binding to C-terminal 6His-tagged human PLK2 (355 to 685 residues) PBD expressed in Rosetta BL21 (DE3) cells preincubated for 1 hrs with compound followed by peptide addition and measured immediately by fluorescence polarization assay
T2 sequence (Q9NYY3 whole entry, the tested form may be a part): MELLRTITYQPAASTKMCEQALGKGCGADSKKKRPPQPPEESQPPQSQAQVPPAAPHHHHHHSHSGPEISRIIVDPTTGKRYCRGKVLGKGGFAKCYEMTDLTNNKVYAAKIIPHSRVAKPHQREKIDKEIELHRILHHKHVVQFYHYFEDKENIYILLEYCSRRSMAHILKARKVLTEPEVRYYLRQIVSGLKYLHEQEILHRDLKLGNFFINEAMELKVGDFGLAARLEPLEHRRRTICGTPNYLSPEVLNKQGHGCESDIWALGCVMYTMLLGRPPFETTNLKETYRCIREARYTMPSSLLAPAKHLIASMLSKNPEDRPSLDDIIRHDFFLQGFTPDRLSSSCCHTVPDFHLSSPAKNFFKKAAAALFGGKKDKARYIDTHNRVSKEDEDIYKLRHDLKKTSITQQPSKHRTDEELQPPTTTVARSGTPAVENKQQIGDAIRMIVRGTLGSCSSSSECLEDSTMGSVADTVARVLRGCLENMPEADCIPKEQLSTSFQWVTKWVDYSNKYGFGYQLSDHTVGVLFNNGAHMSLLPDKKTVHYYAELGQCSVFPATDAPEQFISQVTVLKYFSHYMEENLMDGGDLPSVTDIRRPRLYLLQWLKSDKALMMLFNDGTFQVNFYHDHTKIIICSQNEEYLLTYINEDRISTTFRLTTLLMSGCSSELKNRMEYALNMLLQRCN

[3] = target: T1, Serine/threonine-protein kinase PLK1; assay: Inhibition of 5-carboxyfluoresceinGPMQSpTPLNG-OH peptide binding to human PLK1 (326 to 603 residues) PBD expressed in Rosetta BL21 (DE3) cells preincubated for 1 hrs with compound followed by peptide addition and measured immediately by fluorescence polarization assay
[4] = target: Serine/threonine-protein kinase PLK1 (Homo sapiens, UniProt P53350, T210D); assay: Inhibition of PLK1 T210D mutant kinase domain (unknown origin) using casein as substrate preincubated for 3 hrs followed by substrate addition and measured after 30 mins in the presence of ATP by ADP-Glo kinase assay
Sequence of Serine/threonine-protein kinase PLK1 (Homo sapiens, UniProt P53350, T210D) (P53350 2-603 T210D limits assumed): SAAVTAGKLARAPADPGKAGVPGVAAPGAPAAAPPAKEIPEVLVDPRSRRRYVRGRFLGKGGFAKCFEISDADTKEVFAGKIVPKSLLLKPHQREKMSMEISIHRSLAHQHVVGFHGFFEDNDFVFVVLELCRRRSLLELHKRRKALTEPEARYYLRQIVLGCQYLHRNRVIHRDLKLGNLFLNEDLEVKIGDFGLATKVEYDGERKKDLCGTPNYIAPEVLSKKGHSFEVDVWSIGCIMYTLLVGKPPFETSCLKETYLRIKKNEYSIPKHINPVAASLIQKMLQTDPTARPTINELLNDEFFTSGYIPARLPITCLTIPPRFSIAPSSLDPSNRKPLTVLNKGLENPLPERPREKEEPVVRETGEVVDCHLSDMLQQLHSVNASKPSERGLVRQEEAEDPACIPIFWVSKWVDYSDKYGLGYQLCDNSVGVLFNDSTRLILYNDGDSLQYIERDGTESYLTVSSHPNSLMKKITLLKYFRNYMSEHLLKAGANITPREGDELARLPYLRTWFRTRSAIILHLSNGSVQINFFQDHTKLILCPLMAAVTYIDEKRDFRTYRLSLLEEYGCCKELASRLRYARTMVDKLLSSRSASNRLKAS

[5] = target: T1, Serine/threonine-protein kinase PLK1; assay: Inhibition of biotin labelled PoloBoxtide binding to GST/His-fused full length PLK1 (unknown origin) expressed in baculovirus infected Sf9 cells
[6] = target: T1, Serine/threonine-protein kinase PLK1; assay: Inhibition of PLK1 (unknown origin) in the presence of ATP by ADP-Glo-kinase assay
[7] = target: T2, Serine/threonine-protein kinase PLK2; assay: Inhibition of PLK2 (unknown origin) in the presence of ATP by ADP-Glo-kinase assay
[8] = target: T3, Serine/threonine-protein kinase PLK3 (Homo sapiens, UniProt Q9H4B4); assay: Inhibition of PLK3 (unknown origin) in the presence of ATP by ADP-Glo-kinase assay
Target sequence in this assay (Q9H4B4 whole entry): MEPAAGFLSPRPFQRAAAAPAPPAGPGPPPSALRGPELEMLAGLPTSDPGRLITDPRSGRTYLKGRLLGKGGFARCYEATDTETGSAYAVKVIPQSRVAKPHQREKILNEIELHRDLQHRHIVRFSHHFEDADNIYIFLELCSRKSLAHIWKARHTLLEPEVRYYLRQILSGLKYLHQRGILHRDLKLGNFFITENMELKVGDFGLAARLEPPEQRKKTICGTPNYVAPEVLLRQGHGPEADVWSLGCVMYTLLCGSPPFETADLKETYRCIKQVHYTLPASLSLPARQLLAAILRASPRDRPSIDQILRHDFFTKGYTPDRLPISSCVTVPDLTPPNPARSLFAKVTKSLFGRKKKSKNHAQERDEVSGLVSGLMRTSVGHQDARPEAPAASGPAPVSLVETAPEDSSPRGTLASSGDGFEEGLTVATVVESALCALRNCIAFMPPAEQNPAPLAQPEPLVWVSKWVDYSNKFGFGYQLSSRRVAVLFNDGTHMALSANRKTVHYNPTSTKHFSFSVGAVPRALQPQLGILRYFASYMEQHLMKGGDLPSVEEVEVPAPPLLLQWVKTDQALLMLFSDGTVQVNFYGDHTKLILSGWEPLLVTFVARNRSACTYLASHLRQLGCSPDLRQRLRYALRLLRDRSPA

[9] = Half-life in rat liver microsomes; format: ADME, Microsome
[10] = Solubility of the compound; format: physicochemical
[11] = target: T1, Serine/threonine-protein kinase PLK1; assay: Inhibition of biotinylated p-T78 peptide binding to human HA-EGFP-PLK1 expressed in HEK293-A cells using TMB as substrate incubated for 1 hrs by ELISA plate reader based analysis
[12] = target: T2, Serine/threonine-protein kinase PLK2; assay: Inhibition of Myc-tagged PLK2 PBD (unknown origin) expressed in HEK293T cells using 5CF-GPMQTSpTPKNG-NH2 as substrate preincubated for 30 mins followed by substrate addition and measured after 30 mins by fluorescence polarization assay
[13] = target: T1, Serine/threonine-protein kinase PLK1; assay: Inhibition of 5-carboxyfluoresceinGPMQSpTPLNG-OH peptide binding to N-terminal His7-tagged human PLK1 (326 to 603 residues) PBD expressed in Escherichia coli BL21 (DE3) cells preincubated for 1 hrs with compound followed by peptide addition and measured after 1 hrs by fluorescence polarization assay
[14] = target: T2, Serine/threonine-protein kinase PLK2; assay: Inhibition of 5-carboxyfluorescein-GPMQTSpTPKNG-OH peptide binding to PLK2 (355 to 685 residues) PBD (unknown origin) preincubated for 1 hrs with compound followed by peptide addition and measured after 1 hrs by fluorescence polarization assay
[15] = target: T3, Serine/threonine-protein kinase PLK3; assay: Inhibition of 5-carboxyfluorescein-GPLATSpTPKNG-OH peptide binding to PLK3 (335 to 646 residues) PBD (unknown origin) at 100 uM preincubated for 1 hrs with compound followed by peptide addition and measured after 1 hrs by fluorescence polarization assay; details: time 2.0 hrs
Target sequence in this assay (Q9H4B4 whole entry, looked up): as the sequence (Q9H4B4 whole entry) above

[16] = target: T1, Serine/threonine-protein kinase PLK1; assay: Inhibition of human PLK1 in the presence of ATP

T1 sequence (P53350 whole entry): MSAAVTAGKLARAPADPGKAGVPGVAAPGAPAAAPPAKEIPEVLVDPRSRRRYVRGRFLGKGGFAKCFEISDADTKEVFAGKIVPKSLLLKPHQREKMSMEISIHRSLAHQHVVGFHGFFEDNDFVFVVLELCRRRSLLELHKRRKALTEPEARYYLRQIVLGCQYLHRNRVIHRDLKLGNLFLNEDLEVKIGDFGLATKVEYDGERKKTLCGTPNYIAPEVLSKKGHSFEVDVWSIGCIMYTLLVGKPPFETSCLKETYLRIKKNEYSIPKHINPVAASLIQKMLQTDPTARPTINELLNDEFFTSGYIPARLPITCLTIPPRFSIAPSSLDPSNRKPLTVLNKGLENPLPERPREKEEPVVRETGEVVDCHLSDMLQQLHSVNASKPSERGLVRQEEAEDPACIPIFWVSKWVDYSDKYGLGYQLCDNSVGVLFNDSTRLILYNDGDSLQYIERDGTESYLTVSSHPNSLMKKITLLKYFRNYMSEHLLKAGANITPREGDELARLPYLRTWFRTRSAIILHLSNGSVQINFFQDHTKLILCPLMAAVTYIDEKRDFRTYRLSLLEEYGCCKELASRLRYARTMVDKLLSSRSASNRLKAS

With `COc1ccc(CCNCc2ccc(OCc3ccc(Cl)nc3)c(OC)c2)cc1OC` the EC50 [1] was 0.0002 µM, the EC50 (MCF7) was 12 µM and the EC50 (A-431) was 33 µM. It also gave an EC50 (SK-OV-3) of 5 µM, an EC50 (HCT-15) of 5 µM and an EC50 (U2OS) of 5 µM. The EC50 (A549) was 5 µM, the EC50 (HT-29) was 5 µM and the EC50 (PC-3) was 5 µM. The EC50 (LN-229) was 5 µM, the EC50 (SKW 6.4) was 5 µM and the EC50 (Detroit 562) was 5 µM.
Work on `CC1=CC(=O)C(C(C)C)=C/C1=N/OC(=O)c1ccccc1C` yielded an IC50 [2] of 18.7 µM.
Work on `N#Cc1cccc(CN2C[C@@H]3C[C@H](C2)c2c(-c4ccc5ccccc5c4)ccc(=O)n2C3)c1` yielded an IC50 [3] of 17.9 µM.
Molecule `O=C(O)[C@H]1O[C@@H](Oc2cc3oc(-c4ccccc4)cc(=O)c3c(O)c2O)[C@H](O)[C@@H](O)[C@@H]1O` [BAICALIN] has an IC50 [4] of 3.61 µM.
With `Cc1onc(-c2ccccc2)c1/C=C1\C(=O)Nc2ccccc21` the IC50 [5] was 20 µM.
`O=C1C[C@@H](c2ccccc2)Oc2cc(O)c(O)c(O)c21` gave an IC50 [6] of 6.3 µM, an IC50 [7] of 242 µM and an IC50 [8] of 1600 µM.
For `O=c1c2cc(F)ccc2n2c(=S)[nH]nc2n1CCC(F)(F)F`, the half-life [9] was over 30 min and the solubility [10] was over 60 µg/mL.
With `C[C@H](OP(=O)(O)O)[C@H](NC(=O)c1ccc2c(c1)nc(CCCCc1ccccc1)n2CCc1ccccc1)C(N)=O` the IC50 [11] was 4.5 µM.
For `COc1cccc(CC(=O)NCCCn2c(=O)c3cc(F)ccc3n3c(=S)[nH]nc23)c1`, the half-life [9] was 20.1 min and the solubility [10] was over 60 µg/mL.
Work on `CC(=O)N1CCC[C@H]1C(=O)N[C@@H](CC(C)C)C(=O)N[C@@H](Cc1cn(CCCCCCCCc2ccccc2)nn1)C(=O)N[C@@H](CO)C(=O)N[C@H](C(N)=O)[C@@H](C)OP(=O)(O)O` yielded an IC50 [12] of 0.69 µM.
For `COc1cc(O)c2c(=O)cc(-c3ccccc3)oc2c1OC` [Moslosooflavone], the IC50 [6] was 10.2 µM, the IC50 [7] was 952 µM and the IC50 [8] was 5120 µM.
With `CC1=C/C(=N/OC(=O)c2ccccc2C)C(C)=CC1=O` the IC50 [13] was 1.36 µM, the IC50 [14] was 14.2 µM and the inhibition [15] was 49%.
With `C=CCn1c(=O)c2cnc(Nc3ccc(N4CCN(C)CC4)cc3)nc2n1-c1cccc(C(C)(C)O)n1` [ADAVOSERTIB] the IC50 [16] was 0.015 µM.
